The record followed here is patent publication US9440950B2, “Arginine methyltransferase inhibitors and uses thereof” (Epizyme, Inc., priority 2013, dated 2016).

The target of this assay is T1, human PRMT8 (Homo sapiens, UniProt Q9NR22).
T1 construct: Full-length human PRMT8 (NM_019854.4) isoform 1 transcript clone; made in house
T1 sequence (Q9NR22 whole entry, canonical isoform): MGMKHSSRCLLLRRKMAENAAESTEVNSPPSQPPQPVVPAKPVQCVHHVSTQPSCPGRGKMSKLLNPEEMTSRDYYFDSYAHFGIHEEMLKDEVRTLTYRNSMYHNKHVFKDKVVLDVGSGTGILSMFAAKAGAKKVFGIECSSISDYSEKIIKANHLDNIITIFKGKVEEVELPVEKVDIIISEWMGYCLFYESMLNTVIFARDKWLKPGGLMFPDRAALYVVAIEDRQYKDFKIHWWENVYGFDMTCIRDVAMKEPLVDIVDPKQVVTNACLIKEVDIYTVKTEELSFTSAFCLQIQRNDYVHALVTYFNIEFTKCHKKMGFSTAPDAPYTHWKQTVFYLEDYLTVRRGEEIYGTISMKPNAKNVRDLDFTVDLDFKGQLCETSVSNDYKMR
The experiment in a line: PRMT8 Biochemical Assay. To be noted: peptide substrate, 3H-SAM Flashplate assay. The text has this:
S-adenosylmethionine (SAM), S-adenosylhomocysteine (SAH), bicine, Tween20, dimethylsulfoxide (DMSO), bovine skin gelatin (BSG), isopropyl-P3-D-thiogalactopyranoside (IPTG), and Tris(2-carboxyethyl)phosphine hydrochloride solution (TCEP) were purchased from Sigma-Aldrich at the highest level of purity possible. ^3H-SAM was purchase from American Radiolabeled Chemicals with a specific activity of 80 Ci/mmol. 384-well streptavidin Flashplates were purchased from PerkinElmer.
Peptide representative of human histone H4 residues 31-45 was synthesized with an N-terminal linker-affinity tag motif and a C-terminal amide cap by 21st Century Biochemicals. The peptide was purified by high-performance liquid chromatography (HPLC) to greater than 95% purity and confirmed by liquid chromatography mass spectrometry (LC-MS). The sequence was Biot-Ahx-[…]-amide (SEQ ID NO.:8).
The resulting construct encodes an N-terminal GST tag and a thrombin cleavage sequence ([…] […] […] […]) (SEQ ID NO.:9) fused directly to Met 1 of PRMT8.
E. coli (BL21(DE3) Gold, Stratagene) made competent by the CaCl2 method were transformed with the PRMT8 construct and ampicillin selection. Protein over-expression was accomplished by growing the PRMT8 expressing E. coli clone and inducing expression with 0.3 mM IPTG at 16° C. The culture was grown for 12 hours, harvested by centrifugation, and stored at −80° C. for purification.
The column was washed with 50 mM phosphate buffer, 100 mM NaCl, 5% glycerol, 5 mM β-mercaptoethanol, pH 7.8 and PRMT8 was eluted by 100 mM phosphate in the same buffer. Protein was concentrated and buffer was exchanged to 50 mM Tris, 300 mM NaCl, 10% glycerol, 5 mM β-mercaptoethanol, pH 7.8 by ultrafiltration. The purity of recovered protein was 89%.
General Procedure for PRMT8 Enzyme Assays on Peptide Substrates.
The assays were all performed in a buffer consisting of 20 mM Bicine (pH=7.6), 1 mM TCEP, 0.005% BSG, and 0.002% Tween 20, prepared on the day of use. Compounds in 100% DMSO (1 ul) were spotted into a polypropylene 384-well V-bottom plates (Greiner) using a Platemate Plus outfitted with a 384-channel head (Thermo Scientific). DMSO (1 ul) was added to Columns 11, 12, 23, 24, rows A-H for the maximum signal control and 1 ul of SAH, a known product and inhibitor of PRMT8, was added to columns 11, 12, 23, 24, rows I-P for the minimum signal control. A cocktail (40 ul) containing the PRMT8 enzyme was added by Multidrop Combi (Thermo-Fisher). The compounds were allowed to incubate with PRMT8 for 30 min at room temperature, then a cocktail (10 ul) containing ^3H-SAM and peptide was added to initiate the reaction (final volume=51 ul). The final concentrations of the components were as follows: PRMT8 was 1.5 nM, ^3H-SAM was 50 nM, non-radiolabeled SAM was 550 nM, peptide was 150 nM, SAH in the minimum signal control wells was 1 mM, and the DMSO concentration was 2%. The assays were stopped by the addition of non-radiolabeled SAM (10 ul) to a final concentration of 400 uM, which dilutes the ^3H-SAM to a level where its incorporation into the peptide substrate is no longer detectable. 50 ul of the reaction in the 384-well polypropylene plate was then transferred to a 384-well Flashplate and the biotinylated peptides were allowed to bind to the streptavidin surface for at least 1 hour before being washed once with 0.1% Tween20 in a Biotek ELx405 plate washer. The plates were then read in a PerkinElmer TopCount plate reader to measure the quantity of ^3H-labeled peptide bound to the Flashplate surface, measured as disintegrations per minute (dpm) or alternatively, referred to as counts per minute (cpm).
Where dpm=disintegrations per minute, cmpd=signal in assay well, and min and max are the respective minimum and maximum signal controls.
Where top and bottom are the normally allowed to float, but may be fixed at 100 or 0 respectively in a 3-parameter fit. […]
Compound `Cc1cncc(-c2n[nH]cc2CN(C)CCN)c1` [Compound 6] gave an IC50 of 1.01 to 3 µM.
In the case of `CNCCN(C)Cc1c[nH]nc1-c1ccc(N)nc1` [Compound 3], the 50% inhibitory concentration (IC50) was in the range of 3.01 to 10 µM.
The result for `Cc1cc(-c2n[nH]cc2CN(C)CCN)cnc1Cl` [Compound 10] reads 0.101 to 1 µM.
The result for `CNCCN(C)Cc1c[nH]nc1-c1ccc(O)nc1` [Compound 2] reads not below 10 µM; that for `CNCCN(C)Cc1c[nH]nc1-c1cccnc1` [Compound 1], 1.01 to 3 µM; that for `CN(CCN)Cc1c[nH]nc1-c1ccncc1` [Compound 9], 0.101 to 1 µM.
The result for `COc1ccncc1-c1n[nH]cc1CN(C)CCN` [Compound 16] reads 3.01 to 10 µM; that for `CC(C)CNc1ccc(-c2n[nH]cc2CN(C)CCN)cn1` [Compound 26], 1.01 to 3 µM; that for `CN(CCN)Cc1c[nH]nc1-c1ccc(NCc2ccccc2)nc1` [Compound 25], 1.01 to 3 µM.
For the compound `CN(CCN)Cc1c[nH]nc1-c1ccc(C#N)nc1` [Compound 28, 5-(4-(((2-aminoethyl)(methyl)amino)methyl)-1H-pyrazol-3-yl)picolinonitrile], the IC50 was in the range of 0.101 to 1 µM.
`CN(CCN)Cc1c[nH]nc1-c1cncc(C#N)c1` [Compound 18] displayed a half-inhibitory concentration (IC50) of 3.01 to 10 µM.
The result for `CN(CCN)Cc1c[nH]nc1-c1ccc(C(F)(F)F)nc1` [Compound 13, N^1-methyl-N^1-((3-(6-(trifluoromethyl)pyridin-3-yl)-1H-pyrazol-4-yl)methyl)ethane-1,2-diamine] reads 0.101 to 1 µM; that for `COc1ncccc1-c1n[nH]cc1CN(C)CCN` [Compound 15], 1.01 to 3 µM.
Compound `CN(CCN)Cc1c[nH]nc1-c1cncc(F)c1` [Compound 7] gave a half-inhibitory concentration (IC50) of 1.01 to 3 µM.
The same measure for `CN(CCN)Cc1c[nH]nc1-c1ccc(N2CCOCC2)nc1` [Compound 20]: 0.101 to 1 µM; for `COc1ncc(Cl)cc1-c1n[nH]cc1CN(C)CCN` [Compound 14]: 3.01 to 10 µM; for `CCN(CC)c1ccc(-c2n[nH]cc2CN(C)CCN)cn1` [Compound 24]: 1.01 to 3 µM.
The same measure for `CN(CCN)Cc1c[nH]nc1-c1cncc(S(C)(=O)=O)c1` [Compound 4]: not below 10 µM; for `CN(CCN)Cc1c[nH]nc1-c1ccc(N(C)Cc2ccccc2)nc1` [Compound 23]: 0.101 to 1 µM.
The result for `CC(C)Oc1ccc(-c2n[nH]cc2CN(C)CCN)cn1` [Compound 22] reads 0.101 to 1 µM; that for `CN(CCN)Cc1c[nH]nc1-c1cccnc1` [Compound 8], 1.01 to 3 µM; that for `COc1cc(-c2n[nH]cc2CN(C)CCN)ccn1` [Compound 11], 1.01 to 3 µM.
Turning to `CN(CCN)Cc1c[nH]nc1-c1ccccn1` [Compound 27], the IC50 is not below 10 µM.
The result for `CN(CCN)Cc1c[nH]nc1-c1cncc(Cl)c1` [Compound 19] reads 1.01 to 3 µM.
The result for `Cc1ccncc1-c1n[nH]cc1CN(C)CCN` [Compound 17] reads 3.01 to 10 µM; that for `COc1cc(-c2n[nH]cc2CN(C)CCN)c(Cl)cn1` [Compound 12], 3.01 to 10 µM; that for `CC(C)CN(C)c1ccc(-c2n[nH]cc2CN(C)CCN)cn1` [Compound 21], 1.01 to 3 µM.
The result for `COc1ccc(-c2n[nH]cc2CN(C)CCN)cn1` [Compound 5] reads 1.01 to 3 µM; that for `CN(CCN)Cc1c[nH]nc1-c1cnccc1C(F)(F)F` [Compound 29], not below 10 µM.

The term IC50 denotes the concentration that inhibits the measured activity by half. Low readings indicate inhibition by little substance, high ones a need for much substance.
